Laboratory results reported in patent US12221453B2, “Substituted pyrazolo[5′,1′:2,3]pyrimido[5,4-b][1,4]oxazines as TYK2 inhibitors” (TAKEDA PHARMACEUTICAL COMPANY LIMITED, priority 2018, dated 2025).

tested on: IL-12 induced STAT4 phosphorylation mediated by TYK2/JAK2; test: IL-12 induced pSTAT4 in human PBMC; assay type: cell-based; conditions: 1 hr compound, 1.7 ng/mL IL-12 for 30 minutes
Protocol: Human PBMC were isolated from buffy coat and are stored frozen for assays as needed. […] 15 μL of compound or DMSO was added to the well at the desired concentrations and incubated at 1 hr at 37° C. 15 μL of stimulus (final concentration of 1.7 ng/mL IL-12) was added for 30 minutes prior to pSTAT4 and total STAT4 analysis using cell lysates prepared and analyzed by MSD reagents as per manufacturer protocol. The final DMSO concentration of compound in the assay was 0.1%. The IL-12 induced pSTAT4 assay evaluates the inhibition of IL-12 induced STAT4 phosphorlyation mediated by TYK2/JAK2 ([…] complex).

Structure (SMILES)	IC50
CNc1cc(Nc2cccn(-c3ncccc3F)c2=O)nc2c(C(=O)NC3CC[C@H]3OC)cnn12 (some centres unmarked) [Compound I-265]	< 0.1 µM
CNc1cc(Nc2cccn(C3[C@H]4COC[C@@H]34)c2=O)nc2c(C(=O)NC3C[C@H]3OC)cnn12 (mixture of isomers) [I-24, 5-((1-((1R,5S,6r)-3-Oxabicyclo[3.1.0]hexan-6-yl)-2-oxo-1,2-dihydropyridin-3-yl)amino)-N-(2-methoxycyclopropyl)-7-(methylamino)pyrazolo[1,5-a]pyrimidine-3-carboxamide]	< 0.1 µM
CNc1cc(Nc2cccn([C@H]3CCCC[C@H]3O)c2=O)nc2c(C(=O)N[C@H]3CC[C@]3(C)OC)cnn12 [Compound I-424]	< 0.1 µM
CNc1cc(-c2cnc3n(CC(=O)N4CCC4)cccc2-3)nc2c(C(=O)N[C@H]3CC[C@@H]3OC)cnn12 [Compound I-977]	> 1 µM
CNc1cc(-c2cn([C@@H]3COC[C@@H]3F)c3ncccc23)nc2c(C(=O)NC3CC[C@@H]3OC)cnn12 (some centres unmarked) [Compound I-621]	< 0.1 µM
CNc1cc(-c2cn([C@H]3COC[C@H]3F)c3ncccc23)nc2c(C(=O)N[C@H]3CC[C@@H]3OC)cnn12 [Compound I-625]	< 0.1 µM
CNc1cc(-c2cn([C@H]3C[C@@H](COC)C3)c3ncccc23)nc2c(C(=O)NC3CC[C@H]3O)cnn12 (some centres unmarked) [Compound I-912]	< 0.1 µM
CNc1cc(-c2cn([C@@H]3CC3(F)F)c3ncccc23)nc2c(C(=O)NC3CC[C@H]3O)cnn12 (some centres unmarked) [Compound I-548]	< 0.1 µM
CNc1cc(Nc2cccn([C@H]3C[C@H](F)C3)c2=O)nc2c(C(=O)N[C@H]3CC[C@H](O)C3)cnn12 [Compound I-436]	< 0.1 µM
CNc1cc(-c2cnc3n([C@@H]4COC[C@H]4OC)cccc2-3)nc2c(C(=O)NC3CC[C@@H]3F)cnn12 (some centres unmarked) [Compound I-835]	< 0.1 µM
CNc1cc(Nc2cccn(C3CCOCC3)c2=O)nc2c(C(=O)N[C@H]3CC[C@]3(C)OC)cnn12 [Compound I-407]	< 0.1 µM
CNc1cc(-c2cn([C@@H]3CCOC[C@H]3F)c3ncccc23)nc2c(C(=O)N[C@H]3CC[C@H]3O)cnn12 [Compound I-918]	< 0.1 µM
CNc1cc(Nc2cccn([C@H]3C[C@H](OC)C3)c2=O)nc2c(C(=O)N[C@@H]3CC[C@H]3F)cnn12 [Compound I-178]	< 0.1 µM
CNc1cc(-c2cn([C@H]3CN(C)C[C@@H]3OC)c3ncccc23)nc2c(C(=O)N[C@H]3CC[C@@H]3OC)cnn12 [Compound I-649]	< 0.1 µM
CNc1cc(-c2cn(C(C)C)c3nnccc23)nc2c(C(=O)N[C@@H]3CC[C@H]3OC)cnn12 [Compound I-1009]	< 0.1 µM
CNc1cc(-c2cn([C@H]3CC3(F)F)c3ncccc23)nc2c(C(=O)N[C@@H]3COC[C@@H]3O)cnn12 [Compound I-711]	< 0.1 µM
CNc1cc(-c2cnc3n([C@H]4COC[C@@H]4OC)cccc2-3)nc2c(C(=O)N[C@H]3CC[C@H]3F)cnn12 [Compound I-839]	< 0.1 µM
CNc1cc(-c2cn([C@H]3COC[C@@H]3OC)c3ncccc23)nc2c(C(=O)NC3CC[C@H]3F)cnn12 (some centres unmarked) [Compound I-528]	< 0.1 µM
CNc1cc(-c2cnc3n([C@H]4COC[C@@H]4OC)cccc2-3)nc2c(C(=O)NC3CC[C@H]3F)cnn12 (some centres unmarked) [Compound I-838]	< 0.1 µM
CNc1cc(-c2cn([C@H]3CCC4(C3)OCCO4)c3ncccc23)nc2c(C(=O)N[C@H]3CC[C@@H]3OC)cnn12 [Compound I-808]	< 0.1 µM

Structure (SMILES)	IC50
CNc1cc(Nc2cccn([C@H]3[C@@H]4COC[C@@H]43)c2=O)nc2c(C(=O)N[C@@H]3CC[C@H]3F)cnn12 [Compound I-208]	< 0.1 µM
CNc1cc(-c2cnc3n([C@H]4COC[C@@H]4OC)cccc2-3)nc2c(C(=O)N[C@@H]3CC[C@H]3OC)cnn12 [Compound I-881]	< 0.1 µM
CNc1cc(Nc2cccn([C@H]3CCC[C@H](OC)C3)c2=O)nc2c(C(=O)N[C@H]3CC[C@@H]3F)cnn12 [Compound I-231]	< 0.1 µM
CNc1cc(Nc2cccn([C@H]3CC[C@@H](OC)CC3)c2=O)nc2c(C(=O)N[C@@H]3CC[C@@]3(C)OC)cnn12 [Compound I-431]	< 0.1 µM
CNc1cc(Nc2cccn([C@H]3C[C@@H]3OC)c2=O)nc2c(C(=O)N[C@H]3CC[C@@H]3F)cnn12 [Compound I-158]	< 0.1 µM
CNc1cc(-c2cn([C@H]3COC[C@@H]3OC)c3ncccc23)nc2c(C(=O)N[C@@H]3CC[C@@H]3F)cnn12 [Compound I-530]	< 0.1 µM
CNc1cc(-c2cnc3n([C@H]4CCOC4)cccc2-3)nc2c(C(=O)N[C@H]3CC[C@@H]3OC)cnn12 [Compound I-1002]	< 0.1 µM
CNc1cc(-c2cn([C@H]3COC[C@@H]3OC)c3ccccc23)nc2c(C(=O)NC3CC[C@@H]3OC)cnn12 (some centres unmarked) [Compound I-741]	< 0.1 µM
CNc1cc(-c2cn(C3CCCC3)c3ncccc23)nc2c(C(=O)N[C@H]3CCC3(F)F)cnn12 [Compound I-685]	< 0.1 µM
CNc1cc(Nc2cccn(C3CCOCC3)c2=O)nc2c(C(=O)N[C@H]3CC[C@H]3F)cnn12 [Compound I-192]	< 0.1 µM
CNc1cc(Nc2cccn([C@H]3[C@@H]4COC[C@@H]43)c2=O)nc2c(C(=O)NC3CC[C@@H]3F)cnn12 (some centres unmarked) [Compound I-206]	< 0.1 µM
CNc1cc(Nc2cccn(C3CCC[C@@](C)(OC)C3)c2=O)nc2c(C(=O)N[C@@H]3C[C@@H]3F)cnn12 (some centres unmarked) [Compound I-130]	< 0.1 µM
CNc1cc(Nc2cccn(-c3ncccc3F)c2=O)nc2c(C(=O)NC3CC[C@@]3(C)OC)cnn12 (some centres unmarked) [Compound I-414]	< 0.1 µM
CNc1cc(-c2cn(C3COC3)c3ncccc23)nc2c(C(=O)NC3CCC3(F)F)cnn12 (centres unmarked) [Compound I-673]	< 0.1 µM
CNc1cc(Nc2cccn(-c3ccc(C)nc3)c2=O)nc2c(C(=O)N[C@H]3CCC3(F)F)cnn12 [Compound I-325]	< 0.1 µM
CNc1cc(Nc2cccn([C@@H]3CCC[C@H](C#N)C3)c2=O)nc2c(C(=O)N[C@@H]3CC[C@H]3OC)cnn12 [Compound I-260]	< 0.1 µM
CNc1cc(Nc2cccn([C@@H]3CCCC[C@@H]3O)c2=O)nc2c(C(=O)N[C@@H]3CC[C@H]3F)cnn12 [Compound I-211]	< 0.1 µM
CC(C)n1cccc(Nc2nc3c(C(=O)N[C@H]4CCC4(F)F)cnn3c3c2OCCN3)c1=O [Compound I-766]	< 0.1 µM
CNc1cc(-c2cn([C@H]3CCOC[C@H]3OC)c3ncccc23)nc2c(C(=O)N[C@H]3CC[C@@H]3OC)cnn12 [Compound I-666]	< 0.1 µM
CNc1cc(Nc2cccn([C@H]3[C@@H]4COC[C@@H]43)c2=O)nc2c(C(=O)N[C@@H]3CC[C@@H]3F)cnn12 [Compound I-205]	< 0.1 µM

Structure (SMILES)	IC50
CNc1cc(-c2cnc3n([C@H]4CN(C)C[C@@H]4OC)cccc2-3)nc2c(C(=O)N[C@H]3CC[C@@H]3OC)cnn12 [Compound I-947]	< 0.1 µM
CNc1cc(-c2cn([C@H]3CCN(C)C3)c3ncccc23)nc2c(C(=O)N[C@H]3CC[C@@H]3OC)cnn12 [Compound I-619]	< 0.1 µM
CNc1cc(-c2cn([C@@H]3CCN(C)C3)c3ncccc23)nc2c(C(=O)N[C@H]3CC[C@@H]3OC)cnn12 [Compound I-616]	< 0.1 µM
CNc1cc(Nc2cccn([C@H]3CCCOC3)c2=O)nc2c(C(=O)NC3CC[C@@H]3F)cnn12 (some centres unmarked) [Compound I-197]	< 0.1 µM
CNc1cc(Nc2cccn([C@H]3C[C@@H](OC)C3)c2=O)nc2c(C(=O)N[C@H]3CC[C@@H]3OC)cnn12 [Compound I-253]	< 0.1 µM
CNc1cc(Nc2cccn([C@H]3[C@@H]4COC[C@@H]43)c2=O)nc2c(C(=O)NC3CC[C@H]3F)cnn12 (some centres unmarked) [Compound I-203]	< 0.1 µM
CNc1cc(-c2cnc3n([C@H]4CCOC[C@@H]4O)cccc2-3)nc2c(C(=O)NC3CC3)cnn12 [Compound I-819]	< 0.1 µM
CNc1cc(-c2cnc3n([C@H]4COC[C@@H]4O)cccc2-3)nc2c(C(=O)N[C@@H]3C[C@@H]3F)cnn12 [Compound I-820]	< 0.1 µM
CNc1cc(Nc2cccn([C@@H]3CCC[C@H](C#N)C3)c2=O)nc2c(C(=O)N[C@H]3CCC3(F)F)cnn12 [Compound I-328]	< 0.1 µM
CNc1cc(Nc2cccn([C@H]3CCC[C@@H](C#N)C3)c2=O)nc2c(C(=O)N[C@H]3CCC3(F)F)cnn12 [Compound I-331]	< 0.1 µM
O=C(N[C@@H]1C[C@@H]1F)c1cnn2c3c(c(Nc4cccc5ocnc45)nc12)OCCN3 [Compound I-752]	< 0.1 µM
CNc1cc(Nc2cccn([C@H]3CCC[C@H](OC)C3)c2=O)nc2c(C(=O)NC3CC[C@@H]3F)cnn12 (some centres unmarked) [Compound I-230]	< 0.1 µM
CNc1cc(-c2cn([C@@H]3CCOC[C@@H]3OC)c3ncccc23)nc2c(C(=O)NC3CC[C@@H]3OC)cnn12 (some centres unmarked) [Compound I-668]	< 0.1 µM
CO[C@@H]1CC[C@H]1NC(=O)c1cnn2c3c(c(Nc4cccn(C(C)C)c4=O)nc12)OCCN3 [Compound I-760]	< 0.1 µM
CNc1cc(-c2cn([C@H]3C[C@@H](O)C3)c3ncccc23)nc2c(C(=O)N[C@H]3CC[C@@H]3OC)cnn12 [Compound I-606]	< 0.1 µM
CNc1cc(Nc2cccn(C(C)C)c2=O)nc2c(C(=O)N[C@@H]3CC[C@H]3F)cnn12 [Compound I-147]	< 0.1 µM
CO[C@@H]1CCC1NC(=O)c1cnn2c3c(c(Nc4cccn([C@H]5[C@@H]6COC[C@@H]65)c4=O)nc12)OCCN3 (some centres unmarked) [Compound I-762]	< 0.1 µM
CNc1cc(Nc2cccn([C@H]3[C@@H]4COC[C@@H]43)c2=O)nc2c(C(=O)N[C@@H]3C[C@H]3OC)cnn12 [I-25, 5-((1-((1R,5S,6r)-3-Oxabicyclo[3.1.0]hexan-6-yl)-2-oxo-1,2-dihydropyridin-3-yl)amino)-N-((1R,2R)-2-methoxycyclopropyl)-7-(methylamino)pyrazolo[1,5-a]pyrimidine-3-carboxamide]	< 0.1 µM
CNc1cc(Nc2cccn([C@H]3CC[C@@H]3OC)c2=O)nc2c(C(=O)N[C@H]3CC[C@H]3O)cnn12 [Compound I-240]	< 0.1 µM
